Where two headings read alike, the source gives them in different places.

The conditions of data set [1]: for amount of "other unknown contaminants": change after 3 weeks of storage; for Known contaminant 2: RT 1.97 min; for water absorption: under various storage conditions, compared to the isethionate salt.
The conditions of data set [2]: WO 2005/005426, in words; cited from earlier work.
The conditions of data set [3]: low relative humidity (10% RH); cited from earlier work.
Data set [4] in a line: Dynamic vapour sorption analysis (DVS): water sorption isotherms, hygroscopicity. The data set is classed as physicochemical. The following applies: 25 °C.
[5] abbreviates: RT 1.70 min, 3 weeks, 25 °C 90% RH.
The mark [6] stands for this setting: RT 1.70 min, 3 weeks, 40 °C 70% RH.
The mark [7] stands for this setting: RT 2.56 min, 3 weeks, 25 °C 90% RH.
Setting [8] is: RT 2.56 min, 3 weeks, 40 °C 70% RH.

With `CC(=O)c1c(C)c2cnc(Nc3ccc(N4CCNCC4)cn3)nc2n(C2CCCC2)c1=O` [palbociclib base Form A, 6-acetyl-8-cyclopentyl-5-methyl-2-{[5-(1-piperazinyl)-2-piridinyl]amino}pyrido[2,3-d]pyrimidin-7(8H)-one], in data set [1] (3 weeks, 25 °C 90% RH), the “Known contaminant 1 (RT 1.85 min)” value was 0.03%, the “Known contaminant 2 (RT 1.97 min)” value is given as 0.04%, the Total contamination is recorded as 0.23% and the Total unknown contaminant was 0.16%. In addition, in data set [1] (3 weeks, 25 °C 90% RH), the “Unknown contaminant (RT 1.70 min)” value was 0.04%, the “Unknown contaminant (RT 2.56 min)” value was found to be 0.07%, the “Unknown contaminant (RT 3.04 min)” value is recorded as 0.05% and the Water content was 0.42% m/m%. Moreover, in data set [1] (3 weeks, 40 °C 70% RH), the “Known contaminant 2 (RT 1.97 min)” value amounted to 0.05%, the Total contamination came to 0.17%, the Total unknown contaminant is 0.13% and the “Unknown contaminant (RT 1.70 min)” value stood at 0.05%. In addition, in data set [1] (3 weeks, 40 °C 70% RH), the “Unknown contaminant (RT 2.56 min)” value worked out at 0.04%, the “Unknown contaminant (RT 3.04 min)” value is 0.04% and the Water content is given as 0.41% m/m%. In addition, in data set [1] (3 weeks, 70 °C), the “Known contaminant 1 (RT 1.85 min)” value is 0.03%, the “Known contaminant 2 (RT 1.97 min)” value was 0.05%, the Total contamination was determined as 0.23% and the Total unknown contaminant stood at 0.15%. Moreover, in data set [1] (3 weeks, 70 °C), the “Unknown contaminant (RT 1.70 min)” value amounted to 0.04%, the “Unknown contaminant (RT 2.56 min)” value is on record as 0.06%, the “Unknown contaminant (RT 3.04 min)” value was 0.05% and the Water content is 0.39% m/m%. In addition, in data set [1] (Starting sample), the “Known contaminant 2 (RT 1.97 min)” value was 0.04%, the Total contamination is reported as 0.13%, the Total unknown contaminant is recorded as 0.09% and the “Unknown contaminant (RT 1.70 min)” value is given as 0.04%. For the same compound, in data set [1] (Starting sample), the “Unknown contaminant (RT 2.56 min)” value is 0.05% and the Water content was 0.23% m/m%. In data set [1] (in words), the “amount of "other unknown contaminants"” value is listed as “significantly increases”.
`CC(=O)c1c(C)c2cnc(Nc3ccc(N4CCNCC4)cn3)nc2n(C2CCCC2)c1=O.Cl.Cl` [palbociclib di-HCI salt]: the water solubility entry in data set [2] was “suitable water solubility”. Moreover, the “amount of water absorbed” value in data set [3] is reported as above 2 m/m %.
Consider `CC(=O)c1c(C)c2cnc(Nc3ccc(N4CCNCC4)cn3)nc2n(C2CCCC2)c1=O.O=S(=O)(O)CCO` [palbociclib isethionate Form B], for which, in data set [1] (3 weeks, 25 °C 90% RH), the “Known contaminant 2 (RT 1.97 min)” value is 0.09%, the Total contamination was 0.28%, the Total unknown contaminant worked out at 0.19% and the “Unknown contaminant (RT 1.70 min)” value was 0.03%. Further, in data set [1] (3 weeks, 25 °C 90% RH), the “Unknown contaminant (RT 2.56 min)” value is listed as 0.16% and the Water content worked out at 0.97% m/m%. In addition, in data set [1] (3 weeks, 40 °C 70% RH), the “Known contaminant 2 (RT 1.97 min)” value is reported as 0.10%, the Total contamination is on record as 0.27%, the Total unknown contaminant is reported as 0.17% and the “Unknown contaminant (RT 1.70 min)” value is listed as 0.03%. Moreover, in data set [1] (3 weeks, 40 °C 70% RH), the “Unknown contaminant (RT 2.56 min)” value was 0.14% and the Water content was determined as 0.76% m/m%. In addition, in data set [1] (3 weeks, 70 °C), the “Known contaminant 2 (RT 1.97 min)” value was 0.09%, the Total contamination is 0.28%, the Total unknown contaminant is reported as 0.19% and the “Unknown contaminant (RT 1.70 min)” value was 0.03%. In addition, in data set [1] (3 weeks, 70 °C), the “Unknown contaminant (RT 2.56 min)” value was 0.16% and the Water content amounted to 0.83% m/m%. Moreover, in data set [1] (Starting sample), the “Known contaminant 2 (RT 1.97 min)” value is reported as 0.09%, the Total contamination was 0.29%, the Total unknown contaminant amounted to 0.20% and the “Unknown contaminant (RT 1.36 min)” value was determined as 0.03%. Also, in data set [1] (Starting sample), the “Unknown contaminant (RT 1.70 min)” value stood at 0.03%, the “Unknown contaminant (RT 2.56 min)” value worked out at 0.14% and the Water content was 0.36% m/m%.
As for “palbociclib camsylate salt (1:1) [palbociclib camsylate (1:1) salt]”, in data set [4], the “hygroscopicity (water sorption isotherms)” value (from here on “hygroscopicity”) is on record as “does not exhibit significant hygroscopicity”.
With “palbociclib citrate (1:1) monohydrate salt”, the “hygroscopicity” value in data set [4] is “exhibits significant hygroscopicity”.
Take “palbociclib hydrogen chloride (1:1) salt Form E”: the “hygroscopicity” value in data set [4] is reported as “does not exhibit significant hygroscopicity”. Also, in data set [1] (3 weeks of storage under various forced conditions, compared to palbociclib base Form A and isethionate salt Form B, in words), the stability result is on record as “more stable than the Form A base”. Besides, the Total contamination stood at 0.22% in data set [1] (3 weeks, 25 °C 90% RH); 0.19% in data set [1] (3 weeks, 40 °C 70% RH); 0.23% in data set [1] (3 weeks, 70 °C); 0.20% in data set [1] (Starting sample). The Total unknown contaminant in data set [1] (3 weeks, 25 °C 90% RH) turned out to be 0.16%; in data set [1] (3 weeks, 40 °C 70% RH), 0.13%; in data set [1] (3 weeks, 70 °C) it was 0.17%; in data set [1] (Starting sample), 0.15%. For the same compound, the Water content in data set [1] (3 weeks, 25 °C 90% RH) is given as 0.45% m/m%; in data set [1] (3 weeks, 40 °C 70% RH), 0.41% m/m%; in data set [1] (3 weeks, 70 °C), 0.42% m/m%; in data set [1] (Starting sample) it was 0.21% m/m%. The Unknown contaminant in data set [1] (setting [5]) is reported as 0.06%; in data set [1] (setting [6]) it was 0.06%; in data set [1] (RT 1.70 min, 3 weeks, 70 °C), 0.06%; in data set [1] (RT 1.70 min, Starting sample) it was 0.05%; in data set [1] (setting [7]), 0.10%; in data set [1] (setting [8]), 0.07%. In addition, the Unknown contaminant in data set [1] (RT 2.56 min, 3 weeks, 70 °C) stood at 0.11%; in data set [1] (RT 2.56 min, Starting sample), 0.10%. Further, the “Known contaminant 2” value was found to be 0.06% in data set [1] (3 weeks, 25 °C 90% RH); 0.06% in data set [1] (3 weeks, 40 °C 70% RH); 0.06% in data set [1] (3 weeks, 70 °C); 0.05% in data set [1] (Starting sample). Moreover, the “amount of "other unknown contaminants"” value in data set [1] (in words) is on record as “remains unchanged”. Besides, the water absorption entry in data set [1] (in words) was “significantly less water absorption”.
For the compound palbociclib maleate (Form I) (1:1) salt, the “hygroscopicity” value in data set [4] is “does not exhibit significant hygroscopicity”.
In the case of “palbociclib maleate (Form II) (1:1) salt”, in data set [4], the “hygroscopicity” value was “does not exhibit significant hygroscopicity”.
palbociclib napsylate (1:1) salt: the “hygroscopicity” value in data set [4] is “does not exhibit significant hygroscopicity”.
On to “palbociclib napsylate (1:2) dihydrate salt”, for which, in data set [4], the “hygroscopicity” value is “exhibits significant hygroscopicity”.
With palbociclib oxalate (1:1) salt, in data set [4], the “hygroscopicity” value is on record as “does not exhibit significant hygroscopicity”.
Regarding “palbociclib sulphate (C24H29N7O2 . ½ H2SO4 . 2 H2O) dihydrate salt”, the “hygroscopicity” value in data set [4] is reported as “exhibits significant hygroscopicity”.
Usually solubility stands for the concentration that dissolves in the medium under given conditions. As to palbociclib tosylate (1:1) salt, the “hygroscopicity” value in data set [4] (listed as palbociclib 4-toluenesulfonic acid (1:1) salt) is on record as “does not exhibit significant hygroscopicity”; in data set [4] (listed as palbociclib tosylate salt form) it was “surprisingly low hygroscopicity”. Further, the Total contamination in data set [1] (3 weeks, 25 °C 90% RH) came out at 0.09%; in data set [1] (3 weeks, 40 °C 70% RH) it was 0.09%; in data set [1] (3 weeks, 70 °C), 0.10%; in data set [1] (Starting sample), 0.08%. Further, the Total unknown contaminant in data set [1] (3 weeks, 25 °C 90% RH) worked out at 0.09%; in data set [1] (3 weeks, 40 °C 70% RH) it was 0.09%; in data set [1] (3 weeks, 70 °C) it was 0.10%; in data set [1] (Starting sample), 0.08%. Moreover, the Water content is recorded as 0.51% m/m% in data set [1] (3 weeks, 25 °C 90% RH); 0.49% m/m% in data set [1] (3 weeks, 40 °C 70% RH); 0.49% m/m% in data set [1] (3 weeks, 70 °C); 0.34% m/m% in data set [1] (Starting sample). For the same compound, the Unknown contaminant in data set [1] (setting [5]) is listed as 0.04%; in data set [1] (setting [6]), 0.05%; in data set [1] (RT 1.70 min, 3 weeks, 70 °C), 0.05%; in data set [1] (RT 1.70 min, Starting sample) it was 0.04%; in data set [1] (setting [7]) it was 0.05%; in data set [1] (setting [8]), 0.04%. In addition, the Unknown contaminant was 0.05% in data set [1] (RT 2.56 min, 3 weeks, 70 °C) and 0.04% in data set [1] (RT 2.56 min, Starting sample). Also, the “amount of "other unknown contaminants"” value in data set [1] (in words) is “remains unchanged”. The water absorption entry in data set [1] (in words) is given as “significantly less water absorption”. The solubility is, setting by setting: (0.1 M HCl (pH=1), 37 °C, 1440 min) 20000 µg/mL; (pH 4.5 (slightly acidic), 37 °C, compared to reference palbociclib base Form A, in words) “significantly better”; (pH 4.5 (slightly acidic), 37 °C, compared to reference palbociclib base Form A, in words, listed as palbociclib tosylate salt form) “significantly better solubility”; (pH=1, 37 °C, compared to reference palbociclib base Form A, in words) “comparable”; (pH=4.5 phosphate buffer, 37 °C, 1440 min) 200 µg/mL; (pH=6.8 phosphate buffer, 37 °C, 1440 min) below 30 µg/mL.

Values taken from EP3368527B1, “PALBOCICLIB TOSYLATE” (Egis Gyógyszergyár Zrt., priority 2015, dated 2017).
